Measured values: PMC9278983, “Biochemical and Structural Characterization of Thermostable GH159 Glycoside Hydrolases Exhibiting α-L-Arabinofuranosidase Activity” (Frontiers in Molecular Biosciences, 2022)

Tests used:
Format in all cases: biochemical
[1] = biological target: T1, Cs_Gaf159A (Caldicellulosiruptor saccharolyticus, UniProt A4XGP0); assay: product inhibition, pNPA hydrolysis; details: read-out: % inhibition at 500 mM
T1 construct: gene Csac_0437; full-length (no signal peptide), C-terminal His6 tag, pET24c(+), E. coli BL21 Star, IMAC
T1 sequence (A4XGP0 entry or part of it): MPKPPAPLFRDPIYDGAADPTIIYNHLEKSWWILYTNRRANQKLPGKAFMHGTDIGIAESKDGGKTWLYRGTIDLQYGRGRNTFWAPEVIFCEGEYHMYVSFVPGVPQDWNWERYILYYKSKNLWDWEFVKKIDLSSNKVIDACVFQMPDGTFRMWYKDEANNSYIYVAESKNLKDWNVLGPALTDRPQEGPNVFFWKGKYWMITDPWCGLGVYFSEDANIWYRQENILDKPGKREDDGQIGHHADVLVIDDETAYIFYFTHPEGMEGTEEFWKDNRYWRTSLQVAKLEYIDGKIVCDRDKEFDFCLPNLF

[2] = biological target: T2, Ch_Gaf159A (Caldicellulosiruptor hydrothermalis, UniProt E4QB49); assay: product inhibition, pNPA hydrolysis; details: read-out: % inhibition at 500 mM
T2 construct: gene Calhy_0274; full-length (no signal peptide), C-terminal His6 tag, pET24c(+), E. coli BL21 Star, IMAC; monomer
T2 sequence (E4QB49 entry or part of it): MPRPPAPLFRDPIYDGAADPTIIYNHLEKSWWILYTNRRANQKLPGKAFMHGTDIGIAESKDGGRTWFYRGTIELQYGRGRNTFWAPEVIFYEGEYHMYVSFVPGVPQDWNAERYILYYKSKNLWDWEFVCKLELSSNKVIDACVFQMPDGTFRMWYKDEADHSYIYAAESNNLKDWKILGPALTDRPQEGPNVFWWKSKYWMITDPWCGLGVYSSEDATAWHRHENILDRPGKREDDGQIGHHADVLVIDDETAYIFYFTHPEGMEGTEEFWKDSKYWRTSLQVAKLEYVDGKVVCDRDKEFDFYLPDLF

[3] = biological target: T3, Ck_Gaf159A (Caldicellulosiruptor kronotskyensis, UniProt E4SDK8); assay: product inhibition, pNPA hydrolysis; details: read-out: % inhibition at 500 mM
T3 construct: gene Calkro_0290; full-length (no signal peptide), C-terminal His6 tag, pET24c(+), E. coli BL21 Star, IMAC
T3 sequence (E4SDK8 entry or part of it): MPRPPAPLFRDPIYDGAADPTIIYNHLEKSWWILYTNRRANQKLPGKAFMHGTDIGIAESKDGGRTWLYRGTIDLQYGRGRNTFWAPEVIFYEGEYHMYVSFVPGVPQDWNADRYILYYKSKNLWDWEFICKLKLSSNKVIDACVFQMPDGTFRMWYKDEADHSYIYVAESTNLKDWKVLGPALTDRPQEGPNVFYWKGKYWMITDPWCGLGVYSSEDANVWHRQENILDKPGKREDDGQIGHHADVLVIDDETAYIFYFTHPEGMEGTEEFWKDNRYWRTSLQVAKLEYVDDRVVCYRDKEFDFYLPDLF

[4] = biological target: T2, Ch_Gaf159A; assay: pNP release, […] nm, Michaelis-Menten; details: 82 °C, pH 6.5 MOPS, 10 mM CaCl2, 10 min; saturation not reached
[5] = biological target: T1, Cs_Gaf159A; assay: pNP release, […] nm, Michaelis-Menten; details: 90 °C, pH 6.5 MOPS, 10 mM CaCl2, 10 min; saturation not reached

**Q.** How did the inhibition at 500000 µM [1] turn out when `OC1OC[C@H](O)[C@H](O)[C@H]1O` (some centres unmarked) [arabinose] was run?
**A.** Its inhibition at 500000 µM is less than 50%.

**Q.** And the inhibition at 500000 µM [2]?
**A.** Its inhibition at 500000 µM is less than 50%.

**Q.** And the inhibition at 500000 µM [3]?
**A.** The inhibition at 500000 µM was less than 50%.

**Q.** Which Km [4] does the source give for `O=[N+]([O-])c1ccc(O[C@@H]2O[C@@H](CO)[C@H](O)[C@H]2O)cc1` [pNPA, pNP-α-L-arabinofuranoside] here?
**A.** The Km was greater than 10 mM.

**Q.** What about the Km [5] of the same molecule?
**A.** The Km was greater than 10 mM.
